Where “and” joins values, the source holds several entries; their conditions need not be identical. Equal values may be shown once. Read-outs that look alike come from different tables or passages of the source.
What was measured:
[1] = target: T1, L. amazonensis arginase (L-ARG) (Leishmania amazonensis, UniProt O96394); assay: Recombinant L. amazonensis arginase (L-ARG) inhibition, IC50; format: biochemical; settings: for IC50: mean ± SEM; for fold decrease of enzyme inhibition relative to compound 4: compared with compound 4
Protocol: (§1) Recombinant L-ARG was expressed and purified as previously described. A stock solution of 70 mM was prepared in DMSO and was stored at −20 °C for each compound just before the experiment. The concentration that inhibited 50% of the catalytic activity of the enzyme (IC50) was determined using an inhibitor concentration from 200 μM to 0.05 μM; the concentrations were obtained via a serial dilution in water (1:4). The kinetics were determined using three concentrations of the substrate and three concentrations of inhibitor, as previously described. Two independent experiments were performed in triplicate with a coefficient of nonlinear regression R^2 ≥ 0.85. The sigmoidal model (log IC50) was used to determine the IC50 using GraphPad Prism 7 software for Windows (San Diego, CA, USA).

[2] = target: T1, L. amazonensis arginase (L-ARG); assay: Kinetics of arginase inhibition (Dixon and Cornish-Bowden plots); format: biochemical; settings: for Mechanism of Inhibition: Dixon and Cornish-Bowden plots; for Ki: Dixon plots, L-arginine 100, 50 and 25 mM
Protocol: The enzyme kinetics were performed to determine the mechanism of inhibition and the dissociation constant (Ki) of the compounds via the simultaneous analysis of the Dixon and Cornish-Bowden plots. The Ki inhibition constants (complex EI), which refer to the equilibriums established between the […] in the presence of an inhibitor (I), were determined (Table 1).
as §1
Figure 1 Kinetics of the arginase inhibition by compounds 2–4, 7, and 9. The mechanism of action was determined by an analysis of the Dixon (A) and Cornish-Bowden plots (B); the Ki constant was measured using Dixon plots by calculating the X values at the intersection point of the lines. […] Each drawn point represents the mean of three independent experiments (n = 3) performed in duplicate.

[3] = target: T1, L. amazonensis arginase (L-ARG); settings: cited from earlier work
[4] = tested on: promastigotes and amastigotes of L. amazonensis; settings: cited from earlier work
[5] = tested on: L. amazonensis; set-up: method as in PMID 24906989; settings: BALB/c mice, cutaneous leishmaniasis; cited from earlier work
[6] = recombinant L-ARG, read-out: IC50

## O=C(/C=C/c1ccc(O)cc1)O[C@H](Cc1ccccc1)C(=O)O [Compound 1]
[1]; recombinant L-ARG
  IC50: Inactive

## O=C(CCc1ccc(O)c(O)c1)O[C@H](Cc1ccccc1)C(=O)O [Compound 2]
[1]; [6]
  IC50: 2.8 ± 0.9 µM
[2]
  Mechanism of Inhibition: Noncompetitive
  Ki: 5.7 ± 0.7 µM

## O=C(CCc1ccc(O)c(O)c1)O[C@H](Cc1ccc(O)c(O)c1)C(=O)O [Compound 3]
[1]; [6]
  IC50: 3 ± 0.2 µM
[2]
  Mechanism of Inhibition: Noncompetitive
  Ki: 3.9 ± 0.4 µM

## O=C(CCc1ccc(O)c(O)c1)O[C@H](Cc1ccc(O)cc1)C(=O)O [Compound 4]
[1]; [6]
  IC50: 1.9 ± 0.7 µM
[2]
  Mechanism of Inhibition: Noncompetitive
  Ki: 2 ± 0.6 µM

## O=C(CCc1ccc(O)cc1)O[C@H](Cc1ccc(O)cc1)C(=O)O [Compound 5]
[1]
  fold decrease of enzyme inhibition relative to compound 4: at least 100 times
[1]; recombinant L-ARG
  L-ARG inhibition (in words): weak inhibition
[1]; [6]
  IC50: > 200 µM

## O=C(CCc1ccc(O)cc1)O[C@H](Cc1ccccc1)C(=O)O [Compound 6]
[1]; recombinant L-ARG
  IC50: Inactive

## O=C(O)CC(OC(=O)/C=C/c1ccc(O)c(O)c1)C(=O)O (stereo not shown) [Compound 7]
[1]
  fold decrease of enzyme inhibition relative to compound 4: approximately 20 times
[1]; [6]
  IC50: 36.2 µM and 36 µM
[2]
  Mechanism of Inhibition: Noncompetitive
  Ki: 74 ± 8 µM

## O=C(/C=C/c1ccc(O)cc1)Nc1cc(Cl)ccc1C(=O)O [Compound 8]
[1]; recombinant L-ARG
  IC50: Inactive

## O=C(/C=C/c1ccc(O)c(O)c1)Nc1cc(F)c(F)cc1C(=O)O [Compound 9]
[1]; [6]
  IC50: 5.5 ± 0.5 µM
[2]
  Mechanism of Inhibition: Competitive
  Ki: 4.6 ± 1.7 µM

## O=C(CCc1ccc(O)cc1)Nc1cc(Cl)ccc1C(=O)O [Compound 10]
[1]; recombinant L-ARG
  IC50: Inactive

## O=C(O)/C=C/c1ccc(O)c(O)c1 [caffeic acid]
[3]
  L-ARG inhibition (in words): inhibitory profile
[4]
  activity against the promastigotes and amastigotes of L. amazonensis: active
[5]
  lesion size and parasite burden: effective in reducing the lesion size and parasite burden

## O=C(/C=C/c1ccc(O)c(O)c1)O[C@@H]1C[C@](O)(C(=O)O)C[C@@H](O)[C@H]1O [chlorogenic acid]
[4]
  activity against the promastigotes and amastigotes of L. amazonensis: active

## COc1cc(/C=C/C(=O)O)ccc1O [ferulic acid]
[4]
  activity against the promastigotes and amastigotes of L. amazonensis: active
[5]
  lesion size and parasite burden: effective in reducing the lesion size and parasite burden

## O=C(/C=C/c1ccc(O)c(O)c1)O[C@H](Cc1ccc(O)c(O)c1)C(=O)O [rosmarinic acid]
[3]
  L-ARG inhibition (in words): inhibitory profile
[4]
  activity against the promastigotes and amastigotes of L. amazonensis: active
[5]
  lesion size and parasite burden: effective in reducing the lesion size and parasite burden

## C[C@@H]1O[C@@H](O[C@@H]2[C@@H](O)[C@H](OCCc3ccc(O)c(O)c3)O[C@H](CO)[C@H]2OC(=O)/C=C/c2ccc(O)c(O)c2)[C@H](O)[C@H](O)[C@H]1O [verbascoside]
[3]
  L-ARG inhibition (in words): inhibits
[4]
  activity against promastigote and intracellular amastigotes of the parasite: active

Source: publication PMC9504950, “In Vitro and In Silico Analyses of New Cinnamid and Rosmarinic Acid-Derived Compounds Biosynthesized in Escherichia coli as Leishmania amazonensis Arginase Inhibitors” (Pathogens, 2022)
